Test results: PubChem BioAssay (NCI)
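Here, GI50 denotes the concentration required for 50% inhibition of growth. At the TGI there is no net growth.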

Legend:
Experiment in all cases: inhibition of tumour cell growth, NCI panel, 384-well format
KM12 colon = tested on: KM12 colon
SN12C renal = tested on: SN12C renal
SNB-75 CNS = tested on: SNB-75 CNS
NCI-H322M lung = tested on: NCI-H322M lung
SR leukemia = tested on: SR leukemia
EKVX NSCLC = tested on: EKVX NSCLC
HCT-15 colon = tested on: HCT-15 colon
A498 renal = tested on: A498 renal
HL-60(TB) leukemia = tested on: HL-60(TB) leukemia
T-47D breast = tested on: T-47D breast
A549 NSCLC = tested on: A549 NSCLC
MALME-3M melanoma = tested on: MALME-3M melanoma
HT29 colon = tested on: HT29 colon
MDA-MB-468 breast = tested on: MDA-MB-468 breast
HCC-2998 colon = tested on: HCC-2998 colon
OVCAR-5 ovarian = tested on: OVCAR-5 ovarian
SK-MEL-5 melanoma = tested on: SK-MEL-5 melanoma
M14 melanoma = tested on: M14 melanoma
SW-620 colon = tested on: SW-620 colon
UO-31 renal = tested on: UO-31 renal
SK-MEL-2 melanoma = tested on: SK-MEL-2 melanoma
PC-3 prostate = tested on: PC-3 prostate
UACC-257 melanoma = tested on: UACC-257 melanoma
NCI/ADR-RES ovarian = tested on: NCI/ADR-RES ovarian
DU-145 prostate = tested on: DU-145 prostate
MDA-MB-435 melanoma = tested on: MDA-MB-435 melanoma
786-0 renal = tested on: 786-0 renal
K-562 leukemia = tested on: K-562 leukemia
BT-549 breast = tested on: BT-549 breast
OVCAR-3 ovarian = tested on: OVCAR-3 ovarian
CAKI-1 renal = tested on: CAKI-1 renal
HCT-116 colon = tested on: HCT-116 colon
LOX IMVI melanoma = tested on: LOX IMVI melanoma
SK-MEL-28 melanoma = tested on: SK-MEL-28 melanoma
SK-OV-3 ovarian = tested on: SK-OV-3 ovarian
NCI-H522 lung = tested on: NCI-H522 lung
SNB-19 CNS = tested on: SNB-19 CNS
SF-295 CNS = tested on: SF-295 CNS
HS 578T breast = tested on: HS 578T breast
MDA-MB-231 breast = tested on: MDA-MB-231 breast
HOP-62 NSCLC = tested on: HOP-62 NSCLC
IGROV1 ovarian = tested on: IGROV1 ovarian
OVCAR-8 ovarian = tested on: OVCAR-8 ovarian
UACC-62 melanoma = tested on: UACC-62 melanoma
OVCAR-4 ovarian = tested on: OVCAR-4 ovarian
ACHN renal = tested on: ACHN renal
COLO 205 colon = tested on: COLO 205 colon

Question: Which GI50 (KM12 colon) does the source give for `C[C@@H](C(=O)Nc1ccc(Cl)cc1)C1CCC(c2ccnc3ccc(F)cc23)CC1` (some centres undefined) here?
Answer: 5.81 µM

Question: And the TGI (KM12 colon)?
Answer: 19.8 µM

Question: And the GI50 (SN12C renal)?
Answer: 12.7 µM

Question: What about the TGI (SN12C renal) of the same molecule?
Answer: 28.2 µM

Question: What about the GI50 (SNB-75 CNS) of the same molecule?
Answer: 14.7 µM

Question: And the TGI (SNB-75 CNS)?
Answer: 37.9 µM

Question: And the GI50 (NCI-H322M lung)?
Answer: 17.7 µM

Question: And the TGI (NCI-H322M lung)?
Answer: 78.2 µM

Question: What about the GI50 (SR leukemia) of the same molecule?
Answer: 0.584 µM

Question: What about the TGI (SR leukemia) of the same molecule?
Answer: 1.46 µM

Question: What about the GI50 (EKVX NSCLC) of the same molecule?
Answer: 4.09 µM

Question: And the TGI (EKVX NSCLC)?
Answer: 18.7 µM

Question: And the GI50 (HCT-15 colon)?
Answer: 11.8 µM

Question: And the TGI (HCT-15 colon)?
Answer: 25.6 µM

Question: And the GI50 (A498 renal)?
Answer: 5.31 µM

Question: And the TGI (A498 renal)?
Answer: 21.1 µM

Question: And the GI50 (HL-60(TB) leukemia)?
Answer: 1.35 µM

Question: And the TGI (HL-60(TB) leukemia)?
Answer: 2.9 µM

Question: And the GI50 (T-47D breast)?
Answer: 4.42 µM

Question: And the TGI (T-47D breast)?
Answer: 25.2 µM

Question: And the GI50 (A549 NSCLC)?
Answer: 6.9 µM

Question: And the TGI (A549 NSCLC)?
Answer: 66.5 µM

Question: And the GI50 (MALME-3M melanoma)?
Answer: 15.3 µM

Question: And the TGI (MALME-3M melanoma)?
Answer: 37.5 µM

Question: What about the GI50 (HT29 colon) of the same molecule?
Answer: 9.74 µM

Question: What about the TGI (HT29 colon) of the same molecule?
Answer: 23.1 µM

Question: And the GI50 (MDA-MB-468 breast)?
Answer: 2.17 µM

Question: And the TGI (MDA-MB-468 breast)?
Answer: 8.1 µM

Question: And the GI50 (HCC-2998 colon)?
Answer: 4.23 µM

Question: What about the TGI (HCC-2998 colon) of the same molecule?
Answer: 15.9 µM

Question: What about the GI50 (OVCAR-5 ovarian) of the same molecule?
Answer: 13 µM

Question: What about the TGI (OVCAR-5 ovarian) of the same molecule?
Answer: 35.3 µM

Question: And the GI50 (SK-MEL-5 melanoma)?
Answer: 4.31 µM

Question: What about the TGI (SK-MEL-5 melanoma) of the same molecule?
Answer: 16.2 µM

Question: And the GI50 (M14 melanoma)?
Answer: 13 µM

Question: What about the TGI (M14 melanoma) of the same molecule?
Answer: 40.8 µM

Question: And the GI50 (SW-620 colon)?
Answer: 8.3 µM

Question: What about the TGI (SW-620 colon) of the same molecule?
Answer: 22.6 µM

Question: And the GI50 (UO-31 renal)?
Answer: 15.8 µM

Question: What about the TGI (UO-31 renal) of the same molecule?
Answer: 83.2 µM

Question: What about the GI50 (SK-MEL-2 melanoma) of the same molecule?
Answer: 3.07 µM

Question: And the TGI (SK-MEL-2 melanoma)?
Answer: 10.2 µM

Question: And the GI50 (PC-3 prostate)?
Answer: 5.72 µM

Question: And the TGI (PC-3 prostate)?
Answer: 19 µM

Question: And the GI50 (UACC-257 melanoma)?
Answer: 13.7 µM

Question: And the TGI (UACC-257 melanoma)?
Answer: 31.4 µM

Question: What about the GI50 (NCI/ADR-RES ovarian) of the same molecule?
Answer: 5.62 µM

Question: And the TGI (NCI/ADR-RES ovarian)?
Answer: 22 µM

Question: What about the GI50 (DU-145 prostate) of the same molecule?
Answer: 8.74 µM

Question: And the TGI (DU-145 prostate)?
Answer: 33.2 µM

Question: And the GI50 (MDA-MB-435 melanoma)?
Answer: 16.9 µM

Question: And the TGI (MDA-MB-435 melanoma)?
Answer: 36.7 µM

Question: What about the GI50 ([…]-0 renal) of the same molecule?
Answer: 10.8 µM

Question: And the TGI (786-0 renal)?
Answer: 27 µM

Question: What about the GI50 (K-562 leukemia) of the same molecule?
Answer: 3.38 µM

Question: What about the TGI (K-562 leukemia) of the same molecule?
Answer: 13.7 µM

Question: What about the GI50 (BT-549 breast) of the same molecule?
Answer: 7.14 µM

Question: And the TGI (BT-549 breast)?
Answer: 20.6 µM

Question: And the GI50 (OVCAR-3 ovarian)?
Answer: 7.15 µM

Question: What about the TGI (OVCAR-3 ovarian) of the same molecule?
Answer: 19.9 µM

Question: What about the GI50 (CAKI-1 renal) of the same molecule?
Answer: 19.2 µM

Question: What about the TGI (CAKI-1 renal) of the same molecule?
Answer: 54.7 µM

Question: And the GI50 (HCT-116 colon)?
Answer: 6.31 µM

Question: What about the TGI (HCT-116 colon) of the same molecule?
Answer: 20.4 µM

Question: What about the GI50 (LOX IMVI melanoma) of the same molecule?
Answer: 8.67 µM

Question: What about the TGI (LOX IMVI melanoma) of the same molecule?
Answer: 21.2 µM

Question: And the GI50 (SK-MEL-28 melanoma)?
Answer: 20.6 µM

Question: And the TGI (SK-MEL-28 melanoma)?
Answer: > 92 µM

Question: And the GI50 (SK-OV-3 ovarian)?
Answer: 16.3 µM

Question: And the TGI (SK-OV-3 ovarian)?
Answer: 42.7 µM

Question: And the GI50 (NCI-H522 lung)?
Answer: 3.24 µM

Question: And the TGI (NCI-H522 lung)?
Answer: 15.9 µM

Question: What about the GI50 (SNB-19 CNS) of the same molecule?
Answer: 17.5 µM

Question: And the TGI (SNB-19 CNS)?
Answer: 52.8 µM

Question: What about the GI50 (SF-295 CNS) of the same molecule?
Answer: 10 µM

Question: And the TGI (SF-295 CNS)?
Answer: 31.1 µM

Question: And the GI50 (HS 578T breast)?
Answer: 12.7 µM

Question: And the TGI (HS 578T breast)?
Answer: 27.4 µM

Question: And the GI50 (MDA-MB-231 breast)?
Answer: 13.3 µM

Question: What about the TGI (MDA-MB-231 breast) of the same molecule?
Answer: 65.1 µM

Question: And the GI50 (HOP-62 NSCLC)?
Answer: 12.8 µM

Question: What about the TGI (HOP-62 NSCLC) of the same molecule?
Answer: 29.5 µM

Question: What about the GI50 (IGROV1 ovarian) of the same molecule?
Answer: 8.55 µM

Question: What about the TGI (IGROV1 ovarian) of the same molecule?
Answer: > 47.7 µM

Question: What about the GI50 (OVCAR-8 ovarian) of the same molecule?
Answer: 10.4 µM

Question: What about the TGI (OVCAR-8 ovarian) of the same molecule?
Answer: 25.8 µM

Question: What about the GI50 (UACC-62 melanoma) of the same molecule?
Answer: 14.9 µM

Question: What about the TGI (UACC-62 melanoma) of the same molecule?
Answer: 29.3 µM

Question: What about the GI50 (OVCAR-4 ovarian) of the same molecule?
Answer: 13.9 µM

Question: And the TGI (OVCAR-4 ovarian)?
Answer: 50.2 µM

Question: And the GI50 (ACHN renal)?
Answer: 9.63 µM

Question: And the TGI (ACHN renal)?
Answer: 41.4 µM

Question: And the GI50 (COLO 205 colon)?
Answer: 17.4 µM

Question: And the TGI (COLO 205 colon)?
Answer: > 62.3 µM
